The values below come from US20230045629A1, “TREATMENT OF PROGRESSIVE SUPRANUCLEAR PALSY” (NATIONAL UNIVERSITY CORPORATION TOKAI NATIONAL HIGHER …, priority 2020, published 2023).

Molecules are shown by their SMILES.

This test deals with AT8-positive phosphorylated tau. Put plainly: Actin polymerization inhibitor on phosphorylated tau in primary cortical neurons from fetal mouse brain electroporated in utero with FLNA, fluorescent immunostaining. The class given is cell-based. As to conditions: wild-type FLNA introduced at E14, primary cortical neurons collected at E15, 2 DIV; compared with 0.1% DMSO (control). From the text:
FIG. 17-2: Continued from FIG. 17. (b): Each plasmid was introduced into a fetal mouse brain in a mouse at 14 days of gestation (E14) by in utero electroporation, and primary cortical neurons were collected at 15 days of gestation (E15), followed by 2-day cell culture (2 DIV) and then fluorescent immunostaining. At the time of administration of 0.1% DMSO (control), the expression level of AT8-positive phosphorylated tau was increased because of wild-type FLNA (FLNA^WT) but not at the time of administration of an actin polymerization inhibitor cytochalasin D (CytoD). The multiple asterisks “***” indicate a Tukey's test P value of less than 0.001.
The FLNA gene was induced into the brain of a fetal mouse in a mouse at 14 days of gestation (E14).

With `C=C1[C@@H](C)[C@H]2[C@H](Cc3ccccc3)NC(=O)[C@]23[C@H](OC(C)=O)/C=C/[C@@](C)(O)C(=O)[C@@H](C)C/C=C/[C@H]3[C@@H]1O` [cytochalasin D (CytoD)], the “expression level of AT8-positive phosphorylated tau” value is on record as “did not cause an increase”.
